Patent US11872225B2, “Pyruvate kinase modulators and use thereof” (Agios Pharmaceuticals, Inc., priority 2017, dated 2024)

molecular target: wild type PKM2 (Homo sapiens, UniProt P14618); experiment: PKM2 Assay (LDH/NADH-coupled, absorbance at 340 nm); type: biochemical; details: wild type PKM2 activation; 60 min preincubation at 25° C.; ADP 0.4 mM, PEP 0.11 mM; read-out: PKM2 WT AC50
Protocol: A compound described herein may be tested for its ability to activate PKM2. For simplicity, the activation activity of these compounds is represented as an AC50 in Table 2. In Tables 2, a compound described herein may have an AC50 of wild type PKM2.
PKM2 enzyme stock solution was diluted to prepare a 1.11× Reaction Mix (without ADP). 1 μL of test compound was first added to the wells followed by 40 μL of 1.11× Reaction Mix (without ADP) and incubated at room temperature (25° C.) for 60 min. The reaction was initiated with 10 μL ADP (0.4 mM final concentration), bringing the final Reaction Mix to 1×, and the reaction progress was measured as changes in absorbance at 340 nm wavelength at room temperature.
Test compound preparation: Test compounds were prepared at 50× final concentration in DMSO. 1 to 3 dilutions were made for 11 points (for example 50 μL of 5000 μM compound was added to 100 μL 100% DMSO to yield a 1667 μM, 50 μL of this added to 100 μL DMSO to yield 556 μM, and so forth). The compounds were added to the assay as a 1 to 50 dilution (1 μL in 50 μL) to yield a top concentration of 100 μM, decreasing 3-fold for 11 points.
Reaction Mix: PKM2 (5 ng/well, 0.1 μg/ml), ADP (0.4 mM), PEP (0.11 mM), NADH (180 μM), LDH (0.005 U/μL, Sigma #L3888), 1 mM DTT, 0.03% BSA in 1× Reaction Buffer
Reaction Buffer: 100 mM KCl, 50 mM Tris pH 7.5, 5 mM MgCl2.

Sequence of wild type PKM2 (P14618 whole entry): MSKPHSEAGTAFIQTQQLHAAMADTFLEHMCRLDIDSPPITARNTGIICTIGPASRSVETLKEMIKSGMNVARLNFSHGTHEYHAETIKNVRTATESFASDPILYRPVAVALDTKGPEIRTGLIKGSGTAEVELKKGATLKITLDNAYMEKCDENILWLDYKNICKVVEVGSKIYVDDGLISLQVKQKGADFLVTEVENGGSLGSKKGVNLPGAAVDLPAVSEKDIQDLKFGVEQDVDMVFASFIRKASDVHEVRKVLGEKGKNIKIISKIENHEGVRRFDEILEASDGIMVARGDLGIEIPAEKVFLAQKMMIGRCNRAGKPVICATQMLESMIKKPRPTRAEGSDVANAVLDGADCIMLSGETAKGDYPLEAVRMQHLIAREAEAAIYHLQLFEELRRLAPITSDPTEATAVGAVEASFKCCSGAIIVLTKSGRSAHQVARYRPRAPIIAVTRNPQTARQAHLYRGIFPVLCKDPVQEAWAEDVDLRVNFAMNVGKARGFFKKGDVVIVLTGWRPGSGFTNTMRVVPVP

| AC50 | SMILES |
| --- | --- |
| > 800 nM | CSc1nc2c(s1)c1cnn(Cc3ccc(S(N)(=O)=O)cc3)c(=O)c1n2C [Compound 44] |
| > 800 nM | Cn1cc(C(N)=O)c(Cn2ncc3c4sc(Cc5cc[nH]n5)nc4n(C)c3c2=O)n1 [Compound 116] |
| < 300 nM | Cn1c2nc(Cn3ccnc3)sc2c2cnn(Cc3cccc(C(N)=O)c3)c(=O)c21 [Compound 129] |
| > 800 nM | O=c1c2c(cnn1Cc1ccccc1)c1sc(Cc3ccccn3)nc1n2-c1ccccc1 [Compound 140] |
| 301 to 800 nM | Cn1c2nc(CN)sc2c2cnn(Cc3cccc4[nH]ncc34)c(=O)c21 [Compound 49] |
| < 300 nM | COC(=O)C(C(=O)OC)c1nc2c(s1)c1cnn(Cc3cccc4[nH]ncc34)c(=O)c1n2C [Compound 43] |
| > 800 nM | COc1cccc(Cn2ncc3c4sc(CC5CCCCC5)nc4n(C)c3c2=O)c1 [Compound 19] |
| < 300 nM | Cn1c2nc(Cc3cc[nH]n3)sc2c2cnn(Cc3cscn3)c(=O)c21 [Compound 87] |
| 301 to 800 nM | Cn1c2nc(Cc3cc[nH]n3)sc2c2cnn(Cc3cccc4c3NS(=O)(=O)N4)c(=O)c21 [Compound 98] |
| > 800 nM | Cn1c2nc(Cc3ccccn3)sc2c2cnn(CC3CCOCC3)c(=O)c21 [Compound 139] |
| < 300 nM | Cn1c2nc(Cc3cnn[nH]3)sc2c2cnn(Cc3cccc4[nH]ncc34)c(=O)c21 [Compound 86] |
| 301 to 800 nM | COc1ccccc1Cn1ncc2c3sc(C)nc3n(C)c2c1=O [Compound 3] |
| < 300 nM | Cn1c2nc(Cc3cc[nH]n3)sc2c2cnn(Cc3n[nH]cc3F)c(=O)c21 [Compound 105] |
| 301 to 800 nM | CC(=O)Nc1ccc(F)c(Cn2ncc3c4sc(Cc5cnn(C)c5)nc4n(C)c3c2=O)n1 [Compound 127] |
| < 300 nM | COc1cccc(Cn2ncc3c4sc(C(=O)c5ccccc5)nc4n(C)c3c2=O)c1 [Compound 1] |
| > 800 nM | Cn1c2nc(Cc3ccc(C#N)cc3)sc2c2cnn(Cc3cccc4[nH]ncc34)c(=O)c21 [Compound 33] |
| < 300 nM | Cn1c2nc(Cc3ncsc3F)sc2c2cnn(Cc3cc[nH]n3)c(=O)c21 [Compound 112] |

| AC50 | SMILES |
| --- | --- |
| < 300 nM | Cn1c2nc(Cc3cc[nH]n3)sc2c2cnn(Cc3cccc4c3CCN4)c(=O)c21 [Compound 85] |
| > 800 nM | Cn1c2nc(Cc3cc[nH]n3)sc2c2cnn(Cc3ncsc3C(F)(F)F)c(=O)c21 [Compound 95] |
| > 800 nM | Cn1c2nc(Nc3ccccc3)sc2c2cnn(Cc3cccc4[nH]ncc34)c(=O)c21 [Compound 52] |
| > 800 nM | Cn1cc(CC(N)=O)c(Cn2ncc3c4sc(Cc5cc[nH]n5)nc4n(C)c3c2=O)n1 [Compound 125] |
| > 800 nM | Cn1c2nc(Cc3c[nH]nn3)sc2c2cnn(Cc3ccccc3)c(=O)c21 [Compound 97] |
| < 300 nM | Cn1ccc(Cn2ncc3c4sc(Cc5n[nH]cc5F)nc4n(C)c3c2=O)n1 [Compound 113] |
| 301 to 800 nM | Cn1c2nc(Cn3cnnc3)sc2c2cnn(Cc3cccc4[nH]ncc34)c(=O)c21 [Compound 102] |
| > 800 nM | Cc1nc2c(s1)c1cnn(Cc3ccc4[nH]c(=O)[nH]c4c3)c(=O)c1n2C [Compound 22] |
| > 800 nM | Cn1c2nc(Cc3ccc(=O)[nH]c3)sc2c2cnn(Cc3cccc4[nH]ncc34)c(=O)c21 [Compound 60] |
| < 300 nM | Cn1c2nc(Cc3cc[nH]c(=O)c3)sc2c2cnn(Cc3cccc4[nH]ncc34)c(=O)c21 [Compound 76] |
| > 800 nM | Cn1c2nc(Cc3ccc(Cl)nc3)sc2c2cnn(Cc3cccc4[nH]ncc34)c(=O)c21 [Compound 55] |
| > 800 nM | Cn1c2nc(Cc3n[nH]cc3C(F)(F)F)sc2c2cnn(Cc3cccc4[nH]ncc34)c(=O)c21 [Compound 59] |
| > 800 nM | CCOC(=O)Cn1ncc2c3sc(C)nc3n(C)c2c1=O [Compound 24] |
| > 800 nM | Cc1nc2c(s1)c1cnn(CCCO)c(=O)c1n2C [Compound 15] |
| > 800 nM | CC(=O)Nc1ccc(F)c(Cn2ncc3c4sc(Cn5ccnc5)nc4n(C)c3c2=O)n1 [Compound 130] |
| < 300 nM | COc1cccc(Cn2ncc3c4sc(C(=O)c5cccc(O)c5)nc4n(C)c3c2=O)c1 [Compound 21] |
